{
  "source": "patent US11857519B2",
  "about": "“Compounds and methods for the targeted degradation of enhancer of zeste homolog 2 polypeptide” (Arvinas Operations, Inc., priority 2016, dated 2024)",
  "target": "T1, EZH2 (Homo sapiens, UniProt Q15910)",
  "T1 construct": "Protocol of the Cellular Assay of Target Protein Degradation (VCaP Cells, ELISA); endogenous in cells; host or cells: VCaP cells",
  "T1 sequence (Q15910 whole entry)": "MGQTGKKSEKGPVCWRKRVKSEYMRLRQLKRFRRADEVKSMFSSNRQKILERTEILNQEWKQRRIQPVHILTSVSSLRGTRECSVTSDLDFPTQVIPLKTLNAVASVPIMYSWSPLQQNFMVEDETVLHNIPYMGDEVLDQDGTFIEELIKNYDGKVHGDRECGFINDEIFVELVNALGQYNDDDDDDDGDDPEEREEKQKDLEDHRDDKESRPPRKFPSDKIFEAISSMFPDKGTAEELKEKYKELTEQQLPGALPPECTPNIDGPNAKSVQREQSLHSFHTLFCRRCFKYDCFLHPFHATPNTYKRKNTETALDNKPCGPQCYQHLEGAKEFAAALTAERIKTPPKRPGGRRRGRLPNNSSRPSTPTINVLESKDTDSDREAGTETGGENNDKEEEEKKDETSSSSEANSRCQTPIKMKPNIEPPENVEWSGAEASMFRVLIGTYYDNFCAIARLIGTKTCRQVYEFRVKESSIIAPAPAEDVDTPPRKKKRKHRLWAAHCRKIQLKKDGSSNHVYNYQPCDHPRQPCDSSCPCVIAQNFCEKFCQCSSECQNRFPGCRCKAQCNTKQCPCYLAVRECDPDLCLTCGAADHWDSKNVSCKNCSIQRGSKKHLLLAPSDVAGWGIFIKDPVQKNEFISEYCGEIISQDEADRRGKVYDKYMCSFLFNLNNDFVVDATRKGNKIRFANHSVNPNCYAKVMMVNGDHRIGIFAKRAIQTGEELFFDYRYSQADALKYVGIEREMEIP",
  "T1 sequence (O75530 whole entry partner)": "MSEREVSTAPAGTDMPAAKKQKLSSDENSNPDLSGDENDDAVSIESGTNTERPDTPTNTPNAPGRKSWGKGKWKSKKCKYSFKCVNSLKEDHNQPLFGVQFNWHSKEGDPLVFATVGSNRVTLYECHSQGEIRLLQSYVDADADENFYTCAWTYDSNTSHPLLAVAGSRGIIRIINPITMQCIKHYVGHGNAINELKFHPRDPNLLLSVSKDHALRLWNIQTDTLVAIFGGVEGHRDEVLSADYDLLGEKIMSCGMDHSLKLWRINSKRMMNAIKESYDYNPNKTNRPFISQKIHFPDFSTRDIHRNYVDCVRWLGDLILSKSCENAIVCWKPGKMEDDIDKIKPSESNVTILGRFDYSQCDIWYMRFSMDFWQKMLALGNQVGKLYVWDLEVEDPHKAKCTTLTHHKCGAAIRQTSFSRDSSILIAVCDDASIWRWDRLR",
  "T1 sequence (Q15022 whole entry partner)": "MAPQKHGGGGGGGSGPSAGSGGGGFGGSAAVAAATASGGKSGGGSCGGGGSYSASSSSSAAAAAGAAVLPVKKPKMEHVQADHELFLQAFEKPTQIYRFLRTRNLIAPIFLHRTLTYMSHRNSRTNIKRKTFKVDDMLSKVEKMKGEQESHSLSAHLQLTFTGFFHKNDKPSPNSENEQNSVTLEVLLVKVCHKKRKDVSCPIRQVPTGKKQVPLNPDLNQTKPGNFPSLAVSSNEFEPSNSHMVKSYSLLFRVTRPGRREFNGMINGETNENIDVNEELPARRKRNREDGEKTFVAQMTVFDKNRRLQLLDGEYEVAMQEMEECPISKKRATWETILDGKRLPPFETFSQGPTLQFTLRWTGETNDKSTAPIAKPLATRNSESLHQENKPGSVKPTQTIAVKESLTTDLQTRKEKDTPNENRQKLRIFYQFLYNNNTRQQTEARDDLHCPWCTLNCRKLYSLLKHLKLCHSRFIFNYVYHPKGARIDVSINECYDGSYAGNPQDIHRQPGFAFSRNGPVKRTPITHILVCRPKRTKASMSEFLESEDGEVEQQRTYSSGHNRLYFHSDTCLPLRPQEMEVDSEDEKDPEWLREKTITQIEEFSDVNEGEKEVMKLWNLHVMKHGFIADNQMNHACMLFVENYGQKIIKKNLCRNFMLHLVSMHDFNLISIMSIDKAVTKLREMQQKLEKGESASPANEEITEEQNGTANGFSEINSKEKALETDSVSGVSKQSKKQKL",
  "assay": "Cellular assay of target protein degradation (VCaP cells, ELISA)",
  "format": "cell-based",
  "conditions": "4 hours, protein degradation range at indicated concentration (relative to DMSO control)",
  "method_in_brief": "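VCaP cells grown ≥3 days in RPMI with 5% CSS, then dosed with compounds in 0.1% DMSO for 4 h. Lysates analysed by sandwich ELISA for EZH2 with TMB readout at 450 nm, 562 nm used for background subtraction.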",
  "data": [
    {"smiles": "CCN(c1cc(-c2ccc(OCCCCOc3cc(-c4scnc4C)ccc3CNC(=O)[C@@H]3C[C@@H](O)CN3C(=O)[C@H](C(C)C)N3Cc4ccccc4C3=O)cc2)cc(C(=O)NCc2c(C)cc(C)[nH]c2=O)c1C)C1CCOCC1", "note": "[Compound 63, (2S,4R)-N-[(2-{4-[4-(3-{[(4,6-dimethyl-2-oxo-1,2-dihydropyridin-3-yl)methyl]carbamoyl}-5-[ethyl(oxan-4-yl)amino]-4-methylphenyl)phenoxy]butoxy}-4-(4-methyl-1,3-thiazol-5-yl)phenyl)methyl]-4-hydroxy-1-[(2S)-3-methyl-2-(1-oxo-2,3-dihydro-1H-isoindol-2-yl)butanoyl]pyrrolidine-2-carboxamide]", "values": [
      {"measurement": "percent target protein degradation class", "value": "B (B = degradation between 30% and 60%)"}
    ]},
    {"smiles": "CCN(c1cc(-c2ccc(OCCOc3cc(-c4scnc4C)ccc3CNC(=O)[C@@H]3C[C@@H](O)CN3C(=O)[C@H](C(C)C)N3Cc4ccccc4C3=O)cc2)cc(C(=O)NCc2c(C)cc(C)[nH]c2=O)c1C)C1CCOCC1", "note": "[Compound 64, N-[(2-{2-[4-(3-{[(4,6-dimethyl-2-oxo-1,2-dihydropyridin-3-yl)methyl]carbamoyl}-5-[ethyl(oxan-4-yl)amino]-4-methylphenyl)phenoxy]ethoxy}-4-(4-methyl-1,3-thiazol-5-yl)phenyl)methyl]-4-hydroxy-1-[3-methyl-2-(1-oxo-2,3-dihydro-1H-isoindol-2-yl)butanoyl]pyrrolidine-2-carboxamide]", "values": [
      {"measurement": "percent target protein degradation class", "value": "B (B = degradation between 30% and 60%)"}
    ]},
    {"smiles": "CCN(c1cc(-c2ccc(CCCOCCCCC(=O)N[C@H](C(=O)N3C[C@H](O)C[C@H]3C(=O)N[C@@H](C)c3ccc(-c4scnc4C)cc3)C(C)(C)C)cc2)cc(C(=O)NCc2c(C)cc(C)[nH]c2=O)c1C)C1CCOCC1", "note": "[Compound 88, (2S,4R)-1-((S)-2-(5-(3-(3′-(((4,6-dimethyl-2-oxo-1,2-dibydropyridin-3-yl)methyl)carbamoyl)-5′-(ethyl(tetrahydro-2H-pyran-4-yl)amino)-41-methyl-[1,1′-biphenyl]-4-yl)propoxy)pentanamido)-3,3-dimethylbutanoyl)-4-hydroxy-N-((S)-1-(4-(4-methylthiazol-5-yl)phenyl)ethyl)pyrrolidine-2-carboxamide]", "values": [
      {"measurement": "percent target protein degradation class", "value": "A (A = degradation more than 60%)"}
    ]},
    {"smiles": "CCN(c1cc(-c2ccc(CCCOCCOCC(=O)N[C@H](C(=O)N3C[C@H](O)C[C@H]3C(=O)N[C@@H](C)c3ccc(-c4scnc4C)cc3)C(C)(C)C)cc2)cc(C(=O)NCc2c(C)cc(C)[nH]c2=O)c1C)C1CCOCC1", "note": "[Compound 89]", "values": [
      {"measurement": "percent target protein degradation class", "value": "A (A = degradation more than 60%)"}
    ]},
    {"smiles": "CCN(c1cc(-c2ccc(OCCCOc3cc(-c4scnc4C)ccc3CNC(=O)[C@@H]3C[C@@H](O)CN3C(=O)[C@H](C(C)C)N3Cc4ccccc4C3=O)cc2)cc(C(=O)NCc2c(C)cc(C)[nH]c2=O)c1C)C1CCOCC1", "note": "[Compound 90, (2S,4R)-N-(2-(3-((3′-(((4,6-dimethyl-2-oxo-1,2-dihydropyridin-3-yl)methyl)carbamoyl)-5′-(ethyl(tetrahydro-2H-pyran-4-yl)amino)-4′-methyl-[1,1′-biphenyl]-4-yl)oxy)propoxy)-4-(4-methylthiazol-5-yl)benzyl)-4-hydroxy-1-((S)-3-methyl-2-(1-oxoisoindolin-2-yl)butanoyl)pyrrolidine-2-carboxamide]", "values": [
      {"measurement": "percent target protein degradation class", "value": "B (B = degradation between 30% and 60%)"}
    ]},
    {"smiles": "CCN(c1cc(-c2ccc(OCCN3CCN(c4ccc5c(c4)C(=O)N(C4CCC(=O)NC4=O)C5=O)CC3)cc2)cc(C(=O)NCc2c(C)cc(C)[nH]c2=O)c1C)C1CCOCC1", "note": "(stereo not drawn) [Compound 91, N-((4,6-dimethyl-2-oxo-1,2-dihydropyridin-3-yl)methyl)-4′-(2-(4-(2-(2,6-dioxopiperidin-3-yl)-1,3-dioxoisoindolin-5-yl)piperazin-1-yl)ethoxy)-5-(ethyl(tetrahydro-2H-pyran-4-yl)amino)-4-methyl-[1,1′-biphenyl]-3-carboxamide]", "values": [
      {"measurement": "percent target protein degradation class", "value": "A (A = degradation more than 60%)"}
    ]}
  ]
}
